Test results reported in US8461328B2, “Tricyclic heterocyclic compounds, compositions and methods of use thereof” (Genentech, Inc., priority 2010, dated 2013).

Legend:
Type in all cases: biochemical
[1] = target: T1, TYK2 (Homo sapiens, UniProt P29597); assay: TYK2 inhibition (Table 4)
T1 construct: made in house; host or cells: SF9 insect cells (baculovirus)
T1 sequence (P29597 873-1187): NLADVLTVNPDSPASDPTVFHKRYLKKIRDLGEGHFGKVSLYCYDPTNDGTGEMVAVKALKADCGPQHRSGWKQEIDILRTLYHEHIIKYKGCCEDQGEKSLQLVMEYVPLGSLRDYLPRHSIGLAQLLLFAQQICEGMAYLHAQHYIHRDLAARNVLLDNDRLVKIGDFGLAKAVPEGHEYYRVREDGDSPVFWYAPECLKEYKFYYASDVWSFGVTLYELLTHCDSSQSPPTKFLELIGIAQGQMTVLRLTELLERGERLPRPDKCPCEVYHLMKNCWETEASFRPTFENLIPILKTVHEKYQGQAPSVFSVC

[2] = target: T2, JAK3 (Homo sapiens, UniProt P52333); assay: JAK3 inhibition (Table 4); conditions: read-out: JAK3 Ki
T2 construct: made in house; host or cells: SF9 insect cells (baculovirus)

[3] = target: T3, JAK2 (Homo sapiens, UniProt O60674); assay: JAK2 inhibition (Table 4); conditions: read-out: JAK2 Ki
T3 construct: made in house; host or cells: SF9 insect cells (baculovirus)

[4] = target: T4, JAK1 (Homo sapiens, UniProt P23458); assay: JAK1 inhibition (Table 4); conditions: read-out: JAK1 Ki
T4 construct: made in house; host or cells: SF9 insect cells (baculovirus)
T4 sequence (P23458 852-1154): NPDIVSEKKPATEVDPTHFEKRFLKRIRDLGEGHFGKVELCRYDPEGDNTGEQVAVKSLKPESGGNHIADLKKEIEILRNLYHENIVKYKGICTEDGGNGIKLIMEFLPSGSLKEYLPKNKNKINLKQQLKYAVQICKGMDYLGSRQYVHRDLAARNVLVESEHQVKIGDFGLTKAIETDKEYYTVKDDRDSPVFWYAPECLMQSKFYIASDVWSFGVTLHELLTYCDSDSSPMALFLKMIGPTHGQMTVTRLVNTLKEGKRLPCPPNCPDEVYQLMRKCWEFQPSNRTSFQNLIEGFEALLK

T2 sequence (P52333 783-1124): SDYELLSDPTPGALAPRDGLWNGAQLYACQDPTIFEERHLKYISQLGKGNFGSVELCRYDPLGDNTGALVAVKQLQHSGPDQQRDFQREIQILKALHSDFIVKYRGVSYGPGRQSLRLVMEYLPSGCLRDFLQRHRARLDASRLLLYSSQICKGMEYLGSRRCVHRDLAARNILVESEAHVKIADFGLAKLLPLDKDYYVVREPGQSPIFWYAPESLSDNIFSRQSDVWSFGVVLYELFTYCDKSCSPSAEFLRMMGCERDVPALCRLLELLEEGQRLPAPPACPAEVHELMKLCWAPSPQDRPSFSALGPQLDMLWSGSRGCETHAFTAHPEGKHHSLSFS
T3 sequence (O60674 812-1132): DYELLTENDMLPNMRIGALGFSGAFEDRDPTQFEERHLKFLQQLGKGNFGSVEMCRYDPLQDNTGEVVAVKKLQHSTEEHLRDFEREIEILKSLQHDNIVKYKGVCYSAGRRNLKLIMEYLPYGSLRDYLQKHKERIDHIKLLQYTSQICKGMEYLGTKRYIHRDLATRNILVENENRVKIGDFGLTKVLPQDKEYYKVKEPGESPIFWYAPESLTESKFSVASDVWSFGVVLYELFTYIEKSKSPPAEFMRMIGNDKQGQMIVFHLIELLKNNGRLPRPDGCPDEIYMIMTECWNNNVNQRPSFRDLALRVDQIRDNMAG

SMILES	Ki [1]	Ki [2]	Ki [3]	Ki [4]
Cc1nc2cnc3[nH]ccc3c2n1C1CCC(N2CCC(C#N)CC2)CC1 (stereo not shown) [Example 768, 1-[4-(2-Methyl-6H-1,3,5,6-tetraaza-as-indacen-1-yl)-cyclohexyl]-piperidine-4-carbonitrile]	0.0234 µM	0.0859 µM	0.00647 µM	0.00177 µM
C[C@@H](O)c1nc2cnc3[nH]ccc3c2n1C1CCC(CCS(C)(=O)=O)CC1 (stereo partly drawn) [Example 778, (R)-1-{1-[4-(2-methanesulfonyl-ethyl)-cyclohexyl]-1,6-dihydro-1,3,5,6-tetraaza-as-indacen-2-yl}-ethanol]	0.00689 µM	0.0424 µM	0.0132 µM	0.00065 µM
O=C(CC(F)(F)F)NC1CCC(n2cnc3cnc4[nH]ccc4c32)C1 (racemic) [Example 729, 3,3,3-Trifluoro-N-[3-(6H-1,3,5,6-tetraaza-as-indacen-1-yl)-cyclopentyl]-propionamide]	0.0489 µM	0.0135 µM	0.00979 µM	0.002 µM
C[C@@H](O)c1nc2cnc3[nH]ccc3c2n1C1CCN(Cc2ccn(C)n2)CC1 [Example 825, (R)-1-{1-[1-(1-Methyl-1H-pyrazol-3-ylmethyl)-piperidin-4-yl]-1,6-dihydro-1,3,5,6-tetraaza-as-indacen-2-yl}-ethanol]	1.96 µM	0.143 µM	0.35 µM	0.026 µM
COCC(=O)NC1CCCC(n2cnc3cnc4[nH]ccc4c32)C1 (single isomer, unassigned) [Example 480, 2-Methoxy-N-[3-(6H-1,3,5,6-tetraaza-as-indacen-1-yl)-cyclohexyl]-acetamide]	1.1 µM	0.563 µM	0.179 µM	0.264 µM
Cc1nc2cnc3[nH]ccc3c2n1C1CCC(NS(C)(=O)=O)C1 (racemic) [Example 721, N-[3-(2-methyl-6H-1,3,5,6-tetraaza-as-indacen-1-yl)-cyclopentyl]-methanesulfonamide]	0.0134 µM	0.0142 µM	0.00404 µM	0.00109 µM
C[C@H](O)c1nc2cnc3[nH]ccc3c2n1C1CCOCC1 [Example 543, (S)-1-[1-(Tetrahydro-pyran-4-yl)-1,6-dihydro-1,3,5,6-tetraaza-as-indacen-2-yl]-ethanol]	0.274 µM	0.179 µM	0.384 µM	0.0826 µM
c1cncc(CN2CCC(n3cnc4cnc5[nH]ccc5c43)CC2)c1 [Example 50, 1-(1-Pyridin-3-ylmethyl-piperidin-4-yl)-1,6-dihydro-1,3,5,6-tetraaza-as-indacene]	0.0888 µM	0.018 µM	0.00484 µM	0.00248 µM
Cc1nc2cnc3[nH]ccc3c2n1C1CCc2nc[nH]c2C1 (racemic) [Example 990, 2-Methyl-1-(4,5,6,7-tetrahydro-3H-benzoimidazol-5-yl)-1,6-dihydro-1,3,5,6-tetraaza-as-indacene]	0.325 µM	0.0919 µM	0.204 µM	0.0846 µM
CNc1nc2cnc3[nH]ccc3c2n1C1CCCOC1 (stereo not shown) [Example 773, Methyl-[1-(tetrahydro-pyran-3-yl)-1,6-dihydro-1,3,5,6-tetraaza-as-indacen-2-yl]-amine]	0.149 µM	0.126 µM	0.0814 µM	0.0122 µM
CC(C)(C)C(=O)NCCc1nc2cnc3[nH]ccc3c2n1C1CCN(CCC#N)CC1 [Example 374, N-(2-{l-[l-(2-Cyano-ethyl)-piperidin-4-yl]-1,6-dihydro-1,3,5,6-tetraaza-as-indacen-2-yl}-ethyl)-2,2-dimethyl-propionamide]	0.35 µM	0.1 µM	0.0894 µM	0.00469 µM
COCCNC(=O)O[C@H]1CC[C@H](n2cnc3cnc4[nH]ccc4c32)CC1 [Example 595, Trans (2-methoxy-ethyl)-carbamic acid 4-(6H-1,2,3,5,6-tetraaza-as-indacen-1-yl)-cyclohexyl ester]	0.185 µM	0.0968 µM	0.0289 µM	0.0104 µM
c1cncc(CN2CCC[C@@H](n3cnc4cnc5[nH]ccc5c43)C2)c1 [Example 39, 1-((R)-1-Pyridin-3-ylmethyl-piperidin-3-yl)-1,6-dihydro-1,3,5,6-tetraaza-as-indacene]	0.33 µM	0.182 µM	0.102 µM	0.0359 µM
O=C(Cc1nc2cnc3[nH]ccc3c2n1C1CCCOC1)N1CCC(CO)CC1 (racemic) [Example 984, 1-(4-Hydroxymethyl-piperidin-1-yl)-2-[1-(tetrahydro-pyran-3-yl)-1,6-dihydro-1,3,5,6-tetraaza-as-indacen-2-yl]-ethanone]	0.253 µM	0.173 µM	0.295 µM	0.0177 µM
c1cc2c(ncc3ncn([C@H]4[C@@H]5CNC[C@@H]54)c32)[nH]1 [Example 944, (1R,5S,6S)-1-(3-Aza-bicyclo[3.1.0]hex-6-yl)-1,6-dihydro-1,3,5,6-tetraaza-as-indacene]	1.81 µM	2.44 µM	0.886 µM	0.229 µM
C[C@@H](O)c1nc2cnc3[nH]ccc3c2n1C1CCCC(C#N)C1 (mixture of isomers) [Example 648, Racemic cis 3-[2-((R)-1-Hydroxy-ethyl)-6H-1,2,3,5,6-tetraaza-as-indacen-1-yl]-cyclohexanecarbonitrile]	0.0268 µM	0.119 µM	0.0724 µM	0.00606 µM
NC1CCCC(n2cnc3cnc4[nH]ccc4c32)C1 (single isomer, unassigned) [Example 366, 3-(6H-1,3,5,6-Tetraaza-as-indacen-1-yl)-cyclohexylamine]	0.299 µM	0.381 µM	0.0698 µM	0.0459 µM
CC(O)c1nc2cnc3[nH]ccc3c2n1C1CCN(CC(F)(F)F)CC1 (racemic) [Example 355, 1-{1-[1-(2,2,2-Trifluoro-ethyl)-piperidin-4-yl]-1,6-dihydro-1,3,5,6-tetraaza-as-indacen-2-yl}-ethanol]	0.0345 µM	0.0412 µM	0.0448 µM	0.00379 µM
N#CCCN1CCC(n2c(Cn3cccn3)nc3cnc4[nH]ccc4c32)CC1 [Example 205, 3-[4-(2-Pyrazol-1-ylmethyl-6H-1,2,3,5,6-tetraaza-as-indacen-1-yl)-piperidin-1-yl]-propionitrile]	0.0865 µM	0.0326 µM	0.0233 µM	0.00642 µM
COCCOC(=O)N[C@H]1CC[C@H](n2cnc3cnc4[nH]ccc4c32)CC1 [Example 356, [4-(6H-1,3,5,6-Tetraaza-as-indacen-1-yl)-cyclohexyl]-carbamic acid 2-methoxy-ethyl ester]	0.192 µM	0.209 µM	0.0285 µM	0.0106 µM
C[C@@H](O)c1nc2cnc3[nH]ccc3c2n1[C@H]1CC[C@H](N(C)CC(F)(F)F)CC1 [Example 617, Trans (R)-1-(1-{4-[methyl-(2,2,2-trifluoro-ethyl)-amino]-cyclohexyl}-1,6-dihydro-1,2,3,5,6-tetraaza-as-indacen-2-yl)-ethanol]	0.0223 µM	0.147 µM	0.0387 µM	0.0119 µM
CS(=O)(=O)c1cccc(CN2CCC(n3cnc4cnc5[nH]ccc5c43)CC2)c1 [Example 91, 1-[1-(3-Methanesulfonyl-benzyl)-piperidin-4-yl]-1,6-dihydro-1,3,5,6-tetraaza-as-indacene]	0.142 µM	0.0821 µM	0.00331 µM	0.00064 µM
N#Cc1cccc(N2CCC(n3cnc4cnc5[nH]ccc5c43)CC2)n1 [Example 94, 4-(6H-1,3,5,6-Tetraaza-as-indacen-1-yl)-3,4,5,6-tetrahydro-2H-[1,2′]bipyridinyl-6′-carbonitrile]	0.021 µM	0.00769 µM	0.00282 µM	0.00073 µM
c1cc2c(ncc3ncn(C4CCCOC4)c32)[nH]1 (single isomer, unassigned) [Example 466, 1-(Tetrahydro-pyran-3-yl)-1,6-dihydro-1,3,5,6-tetraaza-as-indacene]	0.0618 µM	0.0756 µM	0.0246 µM	0.00966 µM
CC(O)c1nc2cnc3[nH]ccc3c2n1C1CCCN(CCF)C1 [Example 664, (R)-1-{1-[(R)-1-(2-Fluoro-ethyl)-piperidin-3-yl]-1,6-dihydro-1,2,3,5,6-tetraaza-as-indacen-2-yl}-ethanol]	0.0585 µM	0.112 µM	0.099 µM	0.0638 µM
c1cc2c(ncc3ncn(C4CCCCNC4)c32)[nH]1 (single isomer, unassigned) [Example 110, 1-Azepan-3-yl-1,6-dihydro-1,2,3,5,6-tetraaza-as-indacene]	0.647 µM	0.704 µM	0.292 µM	0.154 µM
O=C(Cc1nc2cnc3[nH]ccc3c2n1C1CCN(Cc2ccccc2)CC1)N1CC(F)C1 [Example 258, 2-[1-(1-Benzyl-piperidin-4-yl)-1,6-dihydro-1,3,5,6-tetraaza-as-indacen-2-yl)-1-(3-fluoro-azetidin-1-yl)-ethanone]	1.81 µM	0.0144 µM	0.125 µM	0.0288 µM
CC(C(=O)N1CCC(n2cnc3cnc4[nH]ccc4c32)CC1)N(C)C (racemic) [Example 438, 2-Dimethylamino-1-[4-(6H-1,3,5,6-tetraaza-as-indacen-1-yl)-piperidin-1-yl]-propan-1-one]	0.823 µM	2.38 µM	0.184 µM	0.0233 µM
